Laboratory results from ChEMBL document CHEMBL1127284, “The synthesis of 2,3-dihydro-4(1H)-quinazolinone angiotensin II receptor antagonists” (Bioorg Med Chem Lett, 1994).

Target: T1, Angiotensin II receptor (Rattus norvegicus, UniProt P29089+P25095+P35351)
T1 sequence (P29089 whole entry): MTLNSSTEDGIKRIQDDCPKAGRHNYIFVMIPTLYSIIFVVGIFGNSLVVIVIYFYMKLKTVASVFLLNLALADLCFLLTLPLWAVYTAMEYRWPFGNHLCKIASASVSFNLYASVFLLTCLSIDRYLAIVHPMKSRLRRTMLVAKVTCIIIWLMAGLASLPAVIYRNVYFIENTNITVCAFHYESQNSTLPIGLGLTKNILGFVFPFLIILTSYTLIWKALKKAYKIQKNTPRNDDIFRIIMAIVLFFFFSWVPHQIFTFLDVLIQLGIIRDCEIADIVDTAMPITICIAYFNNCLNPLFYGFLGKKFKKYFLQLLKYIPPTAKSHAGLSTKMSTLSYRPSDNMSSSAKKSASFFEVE
T1 sequence (P25095 whole entry): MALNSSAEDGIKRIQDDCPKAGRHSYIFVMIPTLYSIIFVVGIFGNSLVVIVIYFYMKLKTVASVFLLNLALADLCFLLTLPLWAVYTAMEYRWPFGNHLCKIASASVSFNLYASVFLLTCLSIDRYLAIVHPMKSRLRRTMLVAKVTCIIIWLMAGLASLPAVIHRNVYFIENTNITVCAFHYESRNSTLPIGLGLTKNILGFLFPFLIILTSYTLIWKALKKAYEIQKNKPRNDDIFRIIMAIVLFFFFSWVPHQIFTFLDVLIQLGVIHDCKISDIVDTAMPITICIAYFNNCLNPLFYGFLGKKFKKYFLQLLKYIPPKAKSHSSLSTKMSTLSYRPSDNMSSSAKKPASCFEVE
T1 sequence (P35351 whole entry): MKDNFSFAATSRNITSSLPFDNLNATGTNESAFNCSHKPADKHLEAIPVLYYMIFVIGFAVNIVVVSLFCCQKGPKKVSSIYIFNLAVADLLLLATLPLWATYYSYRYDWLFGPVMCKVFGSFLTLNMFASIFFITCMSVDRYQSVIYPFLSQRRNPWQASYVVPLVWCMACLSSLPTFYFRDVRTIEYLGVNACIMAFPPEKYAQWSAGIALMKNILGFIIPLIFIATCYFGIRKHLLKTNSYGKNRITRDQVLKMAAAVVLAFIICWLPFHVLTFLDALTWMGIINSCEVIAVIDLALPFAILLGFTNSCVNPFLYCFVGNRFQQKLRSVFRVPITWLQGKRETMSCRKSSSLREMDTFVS
Test: Concentration required for 50% inhibition of binding against Angiotensin II receptor in the rat adrenal cortex tissue
Type: tissue-based

SMILES | IC50 | IC50 (read-out: IC50)
CCCC1Nc2ccc(C(C)C)cc2C(=O)N1Cc1ccc(-c2ccccc2-c2nn[nH]n2)cc1 (stereo not given) | 12 µM | 
CCCCC1N(Cc2ccc(-c3ccccc3-c3nn[nH]n3)cc2)C(=O)c2ccccc2N1C (stereo not given) | 1.1 µM | 
CCCC1N(Cc2ccc(-c3ccccc3-c3nn[nH]n3)cc2)C(=O)c2ccccc2N1C (stereo not given) | 0.05 µM | 
CCCCC1Nc2ccc(C(C)(C)OC)cc2C(=O)N1Cc1ccc(-c2ccccc2-c2nn[nH]n2)cc1 (stereo not given) | 2.7 µM | 
CCCCC1Nc2ccc(Cc3ccccc3)cc2C(=O)N1Cc1ccc(-c2ccccc2-c2nn[nH]n2)cc1 (stereo not given) | 3.7 µM | 
CCCC1Nc2ccccc2C(=O)N1Cc1ccc(-c2ccccc2-c2nn[nH]n2)cc1 (stereo not given) | 0.54 µM | 
CCCCC1Nc2ccc(C(C)C)cc2C(=O)N1Cc1ccc(-c2ccccc2-c2nn[nH]n2)cc1 (stereo not given) | 0.09 µM | 
CC1Nc2ccccc2C(=O)N1Cc1ccc(-c2ccccc2-c2nn[nH]n2)cc1 (stereo not given) | 90 µM | 
CCC1Nc2ccccc2C(=O)N1Cc1ccc(-c2ccccc2-c2nn[nH]n2)cc1 (stereo not given) | 27 µM | 
CCCCC1N(Cc2ccc(-c3ccccc3-c3nn[nH]n3)cc2)C(=O)c2cc(C(C)(C)OC)ccc2N1C (stereo not given) | 2 µM | 
CCC1Nc2ccc(C)cc2C(=O)N1Cc1ccc(-c2ccccc2-c2nn[nH]n2)cc1 (stereo not given) | 20 µM | 
CCCCc1nc2ccc(C(C)(C)OC)cc2c(=O)n1Cc1ccc(-c2ccccc2-c2nn[nH]n2)cc1 [CL-329167] |  | 0.006 µM
CCC1Nc2ccc(C(C)C)cc2C(=O)N1Cc1ccc(-c2ccccc2-c2nn[nH]n2)cc1 (stereo not given) | 45 µM | 
CCCCC1Nc2ccccc2C(=O)N1Cc1ccc(-c2ccccc2-c2nn[nH]n2)cc1 (stereo not given) | 14 µM | 
CCCCC1N(Cc2ccc(-c3ccccc3-c3nn[nH]n3)cc2)C(=O)c2cc(C(C)C)ccc2N1C (stereo not given) | 0.65 µM | 
CCCC1N(Cc2ccc(-c3ccccc3-c3nn[nH]n3)cc2)C(=O)c2ccccc2N1Cc1ccccc1 (stereo not given) | 100 µM | 
CCCCC1Nc2ccc(C(=O)OC)cc2C(=O)N1Cc1ccc(-c2ccccc2-c2nn[nH]n2)cc1 (stereo not given) | 4.1 µM | 
CCCCC1(CCCC)Nc2ccccc2C(=O)N1Cc1ccc(-c2ccccc2-c2nn[nH]n2)cc1 | 13 µM | 
CCCC1N(Cc2ccc(-c3ccccc3-c3nn[nH]n3)cc2)C(=O)c2ccccc2N1CC (stereo not given) | 7.5 µM | 
CCCCC1Nc2ccc(CC)cc2C(=O)N1Cc1ccc(-c2ccccc2-c2nn[nH]n2)cc1 (stereo not given) | 0.37 µM | 
